This is an account of results in paper PMC12136037, “Type II kinase inhibitors that target Parkinson’s disease–associated LRRK2” (Science Advances, 2025).

For test [1], the target named is T1, LRRK2^KW (Homo sapiens, UniProt Q5S007).
T1 construct: LRRK2 R1847 to E2527; His6-Z-tag (TEV cleavable) (N, cleaved yes); host or cells: Sf9 insect cells (baculovirus)
T1 sequence (Q5S007 1847-2527): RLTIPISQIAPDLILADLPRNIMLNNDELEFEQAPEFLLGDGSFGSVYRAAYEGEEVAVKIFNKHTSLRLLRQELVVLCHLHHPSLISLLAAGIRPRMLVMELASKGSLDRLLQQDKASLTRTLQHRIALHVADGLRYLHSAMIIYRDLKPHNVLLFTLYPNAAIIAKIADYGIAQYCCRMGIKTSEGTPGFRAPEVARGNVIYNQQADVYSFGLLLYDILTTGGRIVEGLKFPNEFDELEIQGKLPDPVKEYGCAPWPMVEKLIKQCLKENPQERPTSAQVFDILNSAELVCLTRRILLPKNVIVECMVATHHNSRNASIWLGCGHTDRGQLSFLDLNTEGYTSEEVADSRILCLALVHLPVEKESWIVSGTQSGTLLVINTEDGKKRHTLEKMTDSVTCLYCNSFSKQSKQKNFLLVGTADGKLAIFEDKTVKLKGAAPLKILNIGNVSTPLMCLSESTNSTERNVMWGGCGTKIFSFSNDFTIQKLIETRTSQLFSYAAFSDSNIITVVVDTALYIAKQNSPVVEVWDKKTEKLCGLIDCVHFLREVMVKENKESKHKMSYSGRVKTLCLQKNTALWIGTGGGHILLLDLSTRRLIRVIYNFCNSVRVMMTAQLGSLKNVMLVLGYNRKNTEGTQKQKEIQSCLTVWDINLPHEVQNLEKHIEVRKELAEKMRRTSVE
Kind of test: DSF thermal stabilization of LRRK2^KW. The test is classed as binding. The note with it: DSF, LRRK2^KW, 10 μM inhibitor. How it is done:
To characterize binding between small molecules and LRRK2^KW, induced thermal stabilization was measured by DSF according to previously established protocols ([47]). In brief, LRRK2^KW was diluted to 4 μM in 20 mM Hepes (pH 7.4), 150 mM NaCl, 0.5 mM TCEP, 0.5% glycerol, 20 μM GDP, and 2.5 mM MgCl2, and SYPRO Orange was added (1:1000, MilliporeSigma). Inhibitor (10 μM) to be tested was added to a final sample volume of 20 μl per well of a 96-well plate (white, Starlab). […] The fluorescence was plotted against the temperature, and the melting point (Tm) was determined as the minimum of the first derivative relative to the control.

In test [2] the target is T2, LRRK2^RCKW (Homo sapiens, UniProt Q5S007).
T2 construct: LRRK2 R1327 to E2527; His6-Z-tag (TEV cleavable) (N, cleaved yes); host or cells: Sf9 insect cells (baculovirus)
T2 sequence (Q5S007 1327-2527): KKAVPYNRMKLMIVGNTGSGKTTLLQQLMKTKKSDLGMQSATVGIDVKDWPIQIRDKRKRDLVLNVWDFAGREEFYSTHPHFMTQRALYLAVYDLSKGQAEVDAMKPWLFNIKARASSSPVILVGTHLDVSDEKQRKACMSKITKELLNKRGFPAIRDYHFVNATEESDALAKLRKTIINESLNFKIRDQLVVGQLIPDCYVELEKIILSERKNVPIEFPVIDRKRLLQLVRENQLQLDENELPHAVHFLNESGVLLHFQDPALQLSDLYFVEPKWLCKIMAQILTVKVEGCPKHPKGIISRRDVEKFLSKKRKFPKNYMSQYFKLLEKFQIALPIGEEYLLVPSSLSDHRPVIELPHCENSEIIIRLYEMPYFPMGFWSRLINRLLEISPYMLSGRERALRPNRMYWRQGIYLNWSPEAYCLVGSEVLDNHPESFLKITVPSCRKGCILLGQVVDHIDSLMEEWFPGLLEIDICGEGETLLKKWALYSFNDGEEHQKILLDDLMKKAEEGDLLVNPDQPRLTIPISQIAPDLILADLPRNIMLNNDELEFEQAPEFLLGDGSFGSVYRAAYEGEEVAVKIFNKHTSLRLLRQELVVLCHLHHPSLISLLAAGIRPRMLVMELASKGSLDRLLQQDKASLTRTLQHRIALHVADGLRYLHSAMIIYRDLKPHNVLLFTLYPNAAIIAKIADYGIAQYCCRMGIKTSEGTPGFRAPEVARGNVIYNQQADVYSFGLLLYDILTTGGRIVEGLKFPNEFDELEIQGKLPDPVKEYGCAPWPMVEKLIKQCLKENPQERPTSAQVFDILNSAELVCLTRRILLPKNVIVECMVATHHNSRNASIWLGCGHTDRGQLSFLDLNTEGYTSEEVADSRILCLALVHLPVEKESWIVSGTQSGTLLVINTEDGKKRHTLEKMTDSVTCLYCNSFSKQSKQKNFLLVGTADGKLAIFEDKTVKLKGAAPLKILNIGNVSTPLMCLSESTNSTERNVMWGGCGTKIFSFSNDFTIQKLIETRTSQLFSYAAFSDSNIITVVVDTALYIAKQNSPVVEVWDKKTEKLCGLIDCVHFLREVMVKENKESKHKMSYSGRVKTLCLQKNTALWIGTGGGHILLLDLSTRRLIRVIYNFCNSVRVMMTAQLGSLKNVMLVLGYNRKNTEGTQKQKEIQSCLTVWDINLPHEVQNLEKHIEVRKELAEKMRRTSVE
Kind of test: Biochemical LRRK2 activity assay (PhosphoSense, AssayQuant SOX peptide AQT0615). The note with it: for IC50: LRRK2^RCKW kinase activity, in vitro; for normalized response (LRRK2 activity): normalized to 0% (no kinase) and 100% (no inhibitor) control, two singlicate columns per compound. How it is done:
Two wells per compound were used as 0% (without protein and compound) and 100% (without compound) control. […] The 0% control wells were filled with 10 μl of pure reaction buffer. With the ECHO, 5 nl of 100 mM ATP was pipetted into each well, the plates were centrifuged at 1500g for 2 min, and the reaction was incubated at room temperature for 4 hours. The fluorescence of the SOX-peptide after 360-nm excitation was measured at 487-nm emission with a PHERAstar plate reader (BMG Labtech). The IC50 values were calculated from a nonlinear regression of the log[inhibitor] versus the normalized response with GraphPad Prism 8 (www.graphpad.com/, RRID:SCR_002798).

Several values for one entry are separate records, joined by “and”; a condition that tells them apart may be missing. Identical values can stand only once.

As usually defined, the IC50 is the point on the concentration scale where inhibition reaches its midpoint. A higher IC50 goes with weaker potency. Take `Cn1cc(NC(=O)C2(C(=O)Nc3cccc(-c4c[nH]c5ncnc(N6CCOCC6)c45)c3)CC2)cn1` [Compound 9]: in test [1], the “∆Tm (K)” value turned out to be 4.0 K. In test [2], the IC50 amounted to 2110 ± 1190 nM. Further, the “normalized response (LRRK2 activity)” value in test [2] (log[inhibitor(mol)] -5.60206) is 49.186% and 49.8222%; in test [2] (log[inhibitor(mol)] -6.30103) it was 82.8654% and 52.2345%; in test [2] (log[inhibitor(mol)] -6.90309), 104.293% and 98.1919%; in test [2] (log[inhibitor(mol)] -7.30103), 105.91% and 76.5961%; in test [2] (log[inhibitor(mol)] -7.60206), 104.315% and 59.7541%; in test [2] (log[inhibitor(mol)] -8.09691) it was 97.675% and 89.444%. For the same compound, the “normalized response (LRRK2 activity)” value in test [2] (log[inhibitor(mol)] -8.61979) is 99.5438% and 104.868%; in test [2] (log[inhibitor(mol)] -9.09691), 109.546% and 62.2548%; in test [2] (log[inhibitor(mol)] -9.39794), 105.46% and 118.944%.

Regarding `CN1CCc2cc(NC(=O)C3(C(=O)Nc4cccc(-c5c[nH]c6ncnc(N7CCOCC7)c56)c4)CC3)ccc2C1` [Compound 10], the “∆Tm (K)” value in test [1] amounted to 4.3 K. For the same compound, in test [2], it took 3180 ± 134 nM to reach half-maximal inhibition (IC50). Besides, the “normalized response (LRRK2 activity)” value in test [2] (log[inhibitor(mol)] -5.12494) is 28.5996% and 28.8703%; in test [2] (log[inhibitor(mol)] -5.60206), 54.9087% and 59.3757%; in test [2] (log[inhibitor(mol)] -6.30103), 85.68% and 83.1467%; in test [2] (log[inhibitor(mol)] -6.90309) it was 102.663% and 58.1284%; in test [2] (log[inhibitor(mol)] -7.30103), 103.229% and 99.9077%; in test [2] (log[inhibitor(mol)] -7.60206), 100.894% and 96.1562%. The “normalized response (LRRK2 activity)” value is 96.775% and 100.111% in test [2] (log[inhibitor(mol)] -8.09691); 99.9803% and 105.134% in test [2] (log[inhibitor(mol)] -8.61979); 138.579% and 106.168% in test [2] (log[inhibitor(mol)] -9.09691); 136.224% and 108.416% in test [2] (log[inhibitor(mol)] -9.39794).

In the case of `COc1cc(S(C)(=O)=O)ccc1Nc1nc(N(C)C)c2c(-c3cccc(NC(=O)Nc4cc(C(C)(C)C)nn4-c4ccc(C)cc4)c3)c[nH]c2n1` [Compound 33], the “∆Tm (K)” value in test [1] worked out at 1.0 K. Further, the “normalized response (LRRK2 activity)” value is 124.559% and 124.399% in test [2] (log[inhibitor(mol)] -7.30103); 116.776% and 118.915% in test [2] (log[inhibitor(mol)] -7.60206); 103.198% and 104.843% in test [2] (log[inhibitor(mol)] -8.09691); 103.872% and 98.2729% in test [2] (log[inhibitor(mol)] -8.61979); 102.243% and 101.201% in test [2] (log[inhibitor(mol)] -9.09691); 101.448% and 104.602% in test [2] (log[inhibitor(mol)] -9.39794).
